Like-named read-outs stand apart in the source and are kept apart here.
Key:
[1] = target: cloned human κ opioid receptor (Homo sapiens, UniProt P41145); assay: Opioid receptor binding assay, [3H]diprenorphine, CHO cell membranes; settings: for inhibition at 10 µM: [3H]diprenorphine binding
Protocol: (§1) Chinese hamster ovary (CHO) cells are stably transfected with the cloned human μ, κ, or δ opioid receptors. Cells are harvested by scraping them from the culture flask, centrifuging them at 1000×g for 10 min, resuspending them in buffer A and centrifuging again to remove growth medium. The cells are resuspended again in buffer A and homogenized for 30 seconds using a Polytron homogenizer (Brinkmann) at setting 8. The homogenate is centrifuged at 48,000×g for 10 min at 4° C. The pellets are resuspended at 1 mg of protein per mL of buffer A and aliquots stored at −80° C. until use. Buffer A is 50 mM Tris HCl, pH 7.8, containing 1.0 mM EGTA, 5 mM MgC12, 10 mg/mL leupeptin, 10 mg/mL pepstatin A, 200 mg/mL bacitracin, and 0.5 mg/mL aprotinin.
(§2) Receptor binding assays contain 0.4-1.0 nM [3H]diprenorphine (˜40,000 dpm), test compound as appropriate, and membrane preparation in a total volume of 0.5 mL buffer A. After incubation at room temperature for one hour, the samples are filtered through Whatman GF/B filters that have been presoaked in a solution of 0.5% (w/v) polyethylenimine and 0.1% (w/v) bovine serum albumin in water. The filters are rinsed 4×1 mL with cold 50 mM Tris HCl, pH 7.8 and radioactivity remaining on the filters is determined by scintillation spectroscopy. Ki values are determined by Cheng-Prusoff corrections of IC50 values derived from nonlinear regression fits of 12 point titration curves using the program Prism© (GraphPad Software, San Diego, Calif.).

[2] = target: cloned human μ opioid receptor (Homo sapiens, UniProt P35372); assay: as above; settings: for inhibition at 10 µM: read-out: % Inhibition @ 10 μM, μ
Protocol: as §1, §2

[3] = target: cloned human δ opioid receptor (Homo sapiens, UniProt P41143); assay: as above; settings: for Ki: cloned human δ receptor in CHO membranes, read-out: Ki, inhibition of [3H]diprenorphine binding, δ
Protocol: as §1
The filters are rinsed 4×1 mL with cold 50 mM Tris HCl, pH 7.8 and radioactivity remaining on the filters is determined by scintillation spectroscopy. Ki values are determined by Cheng-Prusoff corrections of IC50 values derived from nonlinear regression fits of 12 point titration curves using the program Prism© (GraphPad Software, San Diego, Calif.).

seizures in mice = assay: Drug-induced seizures; format: in vivo; settings: for induction of seizures: s.c., doses up to 30 mg/kg, observed 30 min
Protocol: Mice are injected s.c. with either vehicle (1:1:8, DMSO: Cremophor: Saline), clozapine (3-30 mg/kg), or DMCLZ (3-30 mg/kg). Immediately after injection, the mice are placed in individual plastic cages (30×16×12 cm) lined with bedding. The mice are observed for gross behavioral signs for 30 min, and the presence or absence of seizures is noted.
To determine the role of δ opioid receptors in mediating clozapine-induced seizures, mice are pretreated with either saline or the selective δ antagonist naltrindole (NTI) (1 mg/kg, s.c.) 20 min prior to treatment with vehicle or 30 mg/kg of clozapine.

human δ opioid receptor = human δ opioid receptor (Homo sapiens, UniProt P41143); assay: Opioid receptor-mediated stimulation of [35S]GTPγS binding; format: biochemical
Protocol: as §1, with “Buffer A is 50 mM Tris HCl, pH 7.8, containing 1.0 mM EGTA, 5 mM MgC12, 10 mg/mL leupeptin, 10 mg/mL pepstatin A, 200 mg/mL bacitracin, and 0.5 mg/mL aprotinin.” left out
Assays contain 80-100 pM [35S]GTPγS, […], 75 mM NaCl, 15 mM MgCl2, 1.0 mM EGTA, 2.1 mM dithiothreitol, 10 mg/mL leupeptin, 10 mg/mL pepstatin A, 200 mg/mL bacitracin, 0.5 mg/mL aprotinin, […] of membrane protein and agonist as appropriate in a final total volume of […] of 50 mM Tris HCl, pH 7.8 in 96 well Basic Flashplates® (NEN). After incubation for one hour at room temperature, the samples are centrifuged at 800×g at 4° C. for 5 min and the radioactivity (cpm) bound to the membranes is determined by scintillation spectrometry.
To determine the IC50 value, which is the concentration to give half-maximal inhibition of agonist-stimulated [35S]GTPγS binding, the cpm of [35S]GTPγS bound in the presence of a fixed concentration of agonist and various concentrations of antagonist is measured. […]

[4] = tested on: formalin-induced flinching, late phase; assay: Formalin-induced flinching; format: in vivo, Sprague-Dawley rats; settings: rat, 300 μg i.paw, late phase 20-35 min after formalin
Protocol: Male Sprague-Dawley rats weighing 80-120 g are injected s.c. with […] of a 5% formalin solution into the dorsal surface of the right hind paw (i.paw). The flinching behavior is quantified by counting the number of responses that occur during the tonic (late) phase of pain, lasting from 20-35 min after formalin injection. The test compounds are injected i.paw 10 min prior to the formalin injection. The mean percent antagonism (%A) of formalin-induced flinching for drug treated, formalin injected rats is calculated according to the following formula: %A=(Mean formalin response−Mean saline response)−Individual response×100/Mean formalin response−Mean saline response The mean formalin response is the mean number of flinches in rats treated with vehicle prior to the formalin injection. The mean saline response is the mean number of flinches in rats treated with […] saline instead of formalin.

[5] = tested on: acetic acid-induced writhing; assay: Acetic acid-induced writhing; format: in vivo, ICR mice; settings: sc; mouse, s.c., 15 min before acetic acid
Protocol: Male ICR mice weighing 20-25 g are injected s.c. with either vehicle or test compound 15 min before they are injected intraperitoneally with 0.6% acetic acid. At 5 min after treatment with acetic acid, the number of writhes is counted for 10 min. Dose response curves are expressed as the percent inhibition of acetic acid induced writhing, when compared to the mean number of writhes observed in vehicle-treated mice.
The mean percent inhibition (%I) of acetic acid-induced writhing for drug-treated rats is calculated according to the following formula: [formula]
The mean individual response is the mean number of writhes in rats treated with test compound. The mean vehicle response is the mean number of writhes in rats treated with vehicle.

[6] = human patients; cited from earlier work
[7] = 10 μM, [3H]diprenorphine binding

cloned human μ opioid receptor, sequence (P35372 whole entry): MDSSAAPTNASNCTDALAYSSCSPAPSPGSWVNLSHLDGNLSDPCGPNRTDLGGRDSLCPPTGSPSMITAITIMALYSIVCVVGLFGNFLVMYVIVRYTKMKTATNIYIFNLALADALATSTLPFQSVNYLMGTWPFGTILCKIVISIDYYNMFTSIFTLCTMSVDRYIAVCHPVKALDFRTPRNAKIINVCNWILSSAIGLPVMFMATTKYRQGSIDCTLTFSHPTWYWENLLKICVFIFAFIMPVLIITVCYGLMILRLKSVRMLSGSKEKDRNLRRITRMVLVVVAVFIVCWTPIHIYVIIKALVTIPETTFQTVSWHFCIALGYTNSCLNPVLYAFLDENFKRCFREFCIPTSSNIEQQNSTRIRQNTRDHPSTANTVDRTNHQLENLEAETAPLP
cloned human δ opioid receptor, sequence (P41143 whole entry): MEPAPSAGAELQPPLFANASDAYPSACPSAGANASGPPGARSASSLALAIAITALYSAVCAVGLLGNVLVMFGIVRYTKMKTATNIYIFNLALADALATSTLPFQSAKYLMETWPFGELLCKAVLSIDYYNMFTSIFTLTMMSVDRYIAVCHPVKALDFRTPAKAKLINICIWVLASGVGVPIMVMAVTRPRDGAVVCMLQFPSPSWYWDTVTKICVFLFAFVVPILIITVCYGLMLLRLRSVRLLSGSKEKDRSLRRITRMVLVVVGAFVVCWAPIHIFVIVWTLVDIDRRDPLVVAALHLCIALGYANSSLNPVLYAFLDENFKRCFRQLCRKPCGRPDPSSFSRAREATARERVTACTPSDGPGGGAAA
cloned human κ opioid receptor, sequence (P41145 whole entry): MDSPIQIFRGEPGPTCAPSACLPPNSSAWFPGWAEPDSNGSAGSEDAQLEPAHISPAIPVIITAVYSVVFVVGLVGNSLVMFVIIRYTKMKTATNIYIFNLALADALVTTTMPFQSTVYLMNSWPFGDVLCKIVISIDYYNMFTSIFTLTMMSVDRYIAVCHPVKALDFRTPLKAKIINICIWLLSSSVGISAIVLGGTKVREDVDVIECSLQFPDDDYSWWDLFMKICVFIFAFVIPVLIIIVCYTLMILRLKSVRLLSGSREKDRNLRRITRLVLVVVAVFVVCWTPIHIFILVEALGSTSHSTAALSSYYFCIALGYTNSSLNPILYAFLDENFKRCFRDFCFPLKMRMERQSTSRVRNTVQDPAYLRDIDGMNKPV
human δ opioid receptor, sequence (P41143 whole entry): as the sequence (P41143 whole entry) above

Structure (SMILES): Clc1ccc2c(c1)C(N1CCNCC1)=Nc1ccccc1O2 [Amoxapine]
- inhibition at 10 µM [1]: 25%
- inhibition at 10 µM [2, 7]: 18%

Structure (SMILES): C=CCN1C[C@H](C)N([C@H](c2ccc(C(=O)N(CC)CC)cc2)c2cccc(O)c2)C[C@H]1C [BW373U86]
- Ki ([1]; cloned human κ receptor in CHO membranes, read-out: Ki, inhibition of [3H]diprenorphine binding, κ): 149 nM
- Ki ([2]; cloned human μ receptor in CHO membranes, read-out: Ki, inhibition of [3H]diprenorphine binding, μ): 96 nM

Structure (SMILES): CN1CCN(C2=Nc3cc(Cl)ccc3Nc3ccccc32)CC1 [Clozapine, 8-chloro-11-(4-methyl-1-piperazinyl)-5H-dibenzo[b,e][1,4]-diazepine]
- Ki [3]: 928 nM
- inhibition at 10 µM [1]: 11%
- inhibition at 10 µM [2, 7]: 17%
- blockade of clozapine-induced seizures by the selective δ antagonist naltrindole (seizures in mice; naltrindole 1 mg/kg s.c. 20 min before 30 mg/kg clozapine): not blocked

Structure (SMILES): CN1CCN(C2=Nc3ccccc3Oc3ccc(Cl)cc32)CC1 [Loxapine]
- inhibition at 10 µM [3, 7]: 26%
- inhibition at 10 µM [1]: 27%
- inhibition at 10 µM [2, 7]: 0%

Structure (SMILES): Clc1ccc2c(c1)N=C(N1CCNCC1)c1ccccc1N2 [N-desmethylclozapine]
- Ki [3]: 24 nM
- inhibition at 10 µM [1]: 64%
- inhibition at 10 µM [2, 7]: 17%
- EC50 (human δ opioid receptor): 290 nM
- agonist character at the human δ opioid receptor (human δ opioid receptor; FIG. 3): full agonist
- percent antagonism (% A) of formalin-induced flinching [4]: 56 % A
- ED50 [5]: 2.2 mg/kg
- induction of seizures (seizures in mice): does not induce seizures
- induction of seizures (seizures in mice; listed as DMCLZ): does not produce seizures
- plasma level [6]: ~620 nM

Structure (SMILES): C=CCN1C[C@H](C)N([C@H](c2ccc(C(=O)N(CC)CC)cc2)c2cccc(OC)c2)C[C@H]1C [SNC-80]
- inhibition at 1 µM ([1]; read-out: % Inhibition @ 1.0 μM, κ): 2%
- inhibition at 10 µM [2]: 5.5%

Reference: patent publication US6630462B2, “Delta agonist analgesics” (Adolor Corporation, priority 2000, dated 2003)
